Read-outs that look alike come from different tables or passages of the source. Ends that are not written are not given here.
Target: Human DDB1 (Homo sapiens (Human), UniProt Q16531)
Experiment: Surface plasmon resonance (SPR) binding assay to immobilized His-DDB1
Method: The binding affinities of heterobifunctional compounds to DDB1 were determined by SPR assay. Purified His-DDB1 proteins were immobilized on a CM5 sensor chip, and a dose range of compound solutions were injected in multi-cycle kinetic format. Data were fit to steady state model and gave equivalent dissociation constants (KD).
Protein Expression and Purification. Human DDB1 (UniPro: Q16531) coding sequences were cloned into pFastBacHTB vector and were expressed in High5 cells using Bac-to-Bac baculovirus expression system (Thermo Fisher Scientific). […] DDB1 proteins were obtained from supernatant of cell lysates and purified through sequential application of Ni affinity (Ni-NTA column. Bio-Rad), and size-exclusion (Superdex 200 16/600GL column, GE Healthcare) column chromatography.
Surface plasmon resonance (SPR) binding assay. All SPR studies were performed on a Biacore X100 plus or T200 instrument (GE Healthcare). Immobilization of purified His-DDB1 was carried out at 25° C. using a CM5 sensor chip. The surface was pre-equilibrated in HBS-EP running buffer (10 mM HEPES, pH7.4, 150 mM NaCl, 3 mM EDTA, 0.05% P20), then activated with EDC/NHS. His-DDB1 proteins were immobilized by amine coupling to a density of 11,000-13,000 resonance units (RUs) on flow cell FC2, whereas flow cell FC1 was used as reference. Both DDB1 immobilized and reference surfaces were deactivated with 1M ethanolamine.
All interaction experiments were performed at 25° C. […] Compound Solutions were injected individually in multi-cycle kinetic format without regeneration (flow rate […], association time 120 s, dissociation time 120 s). Sensorgrams from reference surfaces and blank injections were subtracted from the raw data (double-referencing) and the data was solvent-corrected prior to analysis. All data were fit to steady state affinity model using Biacore Evaluation Software and gave equivalent dissociation constants (KD).

[1] = SPR, steady state affinity model, 25° C., read-out: Binding (DDB1 binder activities, Kd)
[2] = SPR, DDB1 binding moieties with linkers and/or target protein binding moiety, read-out: Binding (Kd)

Human DDB1, sequence (Q16531 whole entry): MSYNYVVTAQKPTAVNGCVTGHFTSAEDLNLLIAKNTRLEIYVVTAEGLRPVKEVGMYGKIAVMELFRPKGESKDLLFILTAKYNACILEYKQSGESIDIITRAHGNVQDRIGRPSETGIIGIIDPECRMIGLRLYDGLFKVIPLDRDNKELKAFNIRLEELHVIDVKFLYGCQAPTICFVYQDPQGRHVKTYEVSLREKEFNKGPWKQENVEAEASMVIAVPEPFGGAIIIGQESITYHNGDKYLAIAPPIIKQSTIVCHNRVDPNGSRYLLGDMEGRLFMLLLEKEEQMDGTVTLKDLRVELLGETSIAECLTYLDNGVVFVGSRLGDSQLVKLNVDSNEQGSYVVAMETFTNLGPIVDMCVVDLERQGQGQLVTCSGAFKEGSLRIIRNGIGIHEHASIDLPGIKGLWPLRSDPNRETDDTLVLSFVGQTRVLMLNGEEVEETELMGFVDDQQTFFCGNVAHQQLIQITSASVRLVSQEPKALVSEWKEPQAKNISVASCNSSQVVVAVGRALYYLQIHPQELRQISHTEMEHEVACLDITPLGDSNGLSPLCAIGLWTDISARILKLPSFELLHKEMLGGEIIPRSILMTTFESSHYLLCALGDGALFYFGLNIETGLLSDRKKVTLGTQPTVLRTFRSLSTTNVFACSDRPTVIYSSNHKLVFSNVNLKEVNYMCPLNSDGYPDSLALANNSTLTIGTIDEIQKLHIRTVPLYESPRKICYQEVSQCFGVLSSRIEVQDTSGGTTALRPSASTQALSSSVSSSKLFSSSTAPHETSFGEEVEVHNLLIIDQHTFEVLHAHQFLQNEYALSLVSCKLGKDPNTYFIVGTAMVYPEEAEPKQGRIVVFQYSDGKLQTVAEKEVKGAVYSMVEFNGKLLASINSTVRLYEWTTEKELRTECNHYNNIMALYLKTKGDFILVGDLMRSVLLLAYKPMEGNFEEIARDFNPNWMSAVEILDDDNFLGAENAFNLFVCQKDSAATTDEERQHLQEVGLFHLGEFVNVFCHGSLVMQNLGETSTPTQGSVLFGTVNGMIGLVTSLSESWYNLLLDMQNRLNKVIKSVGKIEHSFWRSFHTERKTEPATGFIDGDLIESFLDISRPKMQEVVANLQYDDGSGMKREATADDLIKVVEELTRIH

| Compound | Kd [1] | other results |
| --- | --- | --- |
| CN(C(=O)c1ccccc1CCC(F)(F)F)c1ncc([N+](=O)[O-])s1 [B-105, N-Methyl-N-(5-nitrothiazol-2-yl)-2-(3,3,3-trifluoropropyl)benzamide] | > 100 µM |  |
| O=C1CCCCN1c1ncc([N+](=O)[O-])s1 [B-99, 1-(5-Nitrothiazol-2-yl)piperidin-2-one] | 20 to 100 µM |  |
| CC(=O)Nc1cc(NCCOCCOCCOCCN)ccc1C(=O)Nc1ncc([N+](=O)[O-])s1 [BL-9, 2-Acetamido-4-((2-(2-(2-(2-aminoethoxy)ethoxy)ethoxy)ethyl)amino)-N-(5-nitrothiazol-2-yl)benzamide] |  | Kd [2]: < 20 µM |
| CC(=O)Nc1cc(NCCOCCOCCNC(=O)CN2CCN(c3ccc(Nc4ncc5c(C)c(C(C)=O)c(=O)n(C6CCCC6)c5n4)nc3)CC2)ccc1C(=O)Nc1nc(C)c([N+](=O)[O-])s1 [D-45, 2-Acetamido-4-((2-(2-(2-(2-(4-(6-((6-acetyl-8-cyclopentyl-5-methyl-7-oxo-7,8-dihydropyrido[2,3-d]pyrimidin-2-yl)amino)pyridin-3-yl)piperazin-1-yl)acetamido)ethoxy)ethoxy)ethyl)amino)-N-(4-methyl-5-nitrothiazol-2-yl)benzamide] |  | Kd [2]: < 20 µM |
| CC(=O)Oc1ccccc1C(=O)Nc1nc(C)c([N+](=O)[O-])s1 [B-9, 2-((4-Methyl-5-nitrothiazol-2-yl)carbamoyl)phenyl acetate] | 20 to 100 µM |  |
| SRLNRRASF [Peptide 7] |  | Kd: 20 to 100 µM |
| CCCCNc1ccc(C(=O)Nc2ncc(C#N)s2)c(-c2ccccc2)c1 [B-119, 5-(Butylamino)-N-(5-cyanothiazol-2-yl)-[1,1′-biphenyl]-2-carboxamide] | 20 to 100 µM |  |
| CCCNC(=O)c1cccc(C(=O)Nc2ncc([N+](=O)[O-])s2)c1O [B-15, 2-hydroxy-N^1-(5-nitrothiazol-2-yl)-N^3-propylisophthalamide] | 20 to 100 µM |  |
| CC(=O)Nc1ccccc1C(=O)Nc1nc(C)c([N+](=O)[O-])s1 [B-27, 2-Acetamido-N-(4-methyl-5-nitrothiazol-2-yl)benzamide] | 20 to 100 µM |  |
| CC(=O)Nc1ccccc1C(=O)Nc1ncc(F)s1 [B-36, 2-Acetamido-N-(5-fluorothiazol-2-yl)benzamide] | 20 to 100 µM |  |
| CC(=O)N(C)c1ccccc1C(=O)Nc1ncc([N+](=O)[O-])s1 [B-64, 2-(N-Methylacetamido)-N-(5-nitrothiazol-2-yl)benzamide] | 20 to 100 µM |  |
| CC(=O)Nc1cc(C(=O)NCCOCCOCCOCCN)ccc1C(=O)Nc1ncc([N+](=O)[O-])s1 [BL-6, 2-acetamido-N^4-(2-(2-(2-(2-aminoethoxy)ethoxy)ethoxy)ethyl)-N^1-(5-nitrothiazol-2-yl)terephthalamide] |  | Kd [2]: 20 to 100 µM |
| CCCC(=O)Nc1cccc(C(=O)Nc2ncc([N+](=O)[O-])s2)c1OC(=O)CCC [B-24, 2-Butyramido-6-((5-nitrothiazol-2-yl)carbamoyl)phenyl butyrate] | 20 to 100 µM |  |
| O=C(Nc1ncc([N+](=O)[O-])s1)c1ccccc1Br [B-93, 2-Bromo-N-(5-nitrothiazol-2-yl)benzamide] | 20 to 100 µM |  |
| CC(=O)Nc1cc(NCCOCCOCCOCCOCCNC(=O)CN2CCN(c3cccc(-c4cnc5ccc(N6CCC[C@@H]6c6cccc(F)c6)nn45)n3)CC2)ccc1C(=O)Nc1nc(C)c([N+](=O)[O-])s1 [D-23, (R)-2-Acetamido-4-((1-(4-(6-(6-(2-(3-fluorophenyl)pyrrolidin-1-yl)imidazo[1,2-b]pyridazin-3-yl)pyridin-2-yl)piperazin-1-yl)-2-oxo-6,9,12,15-tetraoxa-3-azaheptadecan-17-yl)amino)-N-(4-methyl-5-nitrothiazol-2-yl)benzamide] |  | Kd [2]: 20 to 100 µM |
| CCCCNc1ccc(C(=O)Nc2ncc(Br)s2)c(-c2ccccc2)c1 [B-117, N-(5-Bromothiazol-2-yl)-5-(butylamino)-[1,1′-biphenyl]-2-carboxamide] | 20 to 100 µM |  |
| CC(=O)Nc1ccccc1C(=O)Nc1ccc(I)cc1 [B-60, 2-Acetamido-N-(4-iodophenyl)benzamide] | 20 to 100 µM |  |
| CC(C)Nc1ccccc1C(=O)Nc1ncc([N+](=O)[O-])s1 [B-70, 2-(Isopropylamino)-N-(5-nitrothiazol-2-yl)benzamide] | < 20 µM |  |
| O=C(Nc1ncc([N+](=O)[O-])s1)c1ccccc1C(F)(F)F [B-89, N-(5-Nitrothiazol-2-yl)-2-(trifluoromethyl)benzamide] | 20 to 100 µM |  |
| CC(=O)Nc1cc(NCCOCCNC(=O)CN2CCC(n3nc(N4CCCc5cc(-c6cnn(C)c6)c(C(F)F)cc54)c4c3CCN(C(C)=O)C4)CC2)ccc1C(=O)Nc1nc(C)c([N+](=O)[O-])s1 [D-7, 2-Acetamido-4-((2-(2-(2-(4-(5-acetyl-3-(7-(difluoromethyl)-6-(1-methyl-1H-pyrazol-4-yl)-3,4-dihydroquinolin-1 (2H)-yl)-4,5,6,7-tetrahydro-1H-pyrazolo[4,3-c]pyridin-1-yl)piperidin-1-yl)acetamido)ethoxy)ethyl)amino)-N-(4-methyl-5-nitrothiazol-2-yl)benzamide] |  | Kd [2]: 20 to 100 µM |
| O=C(O)CCc1ccccc1C(=O)Nc1ncc([N+](=O)[O-])s1 [B-88, 3-(2-((5-Nitrothiazol-2-yl)carbamoyl)phenyl)propanoic acid] | 20 to 100 µM |  |
| CCCC(=O)Nc1ccc(C(=O)Nc2ncc([N+](=O)[O-])s2)c(OC(C)=O)c1 [B-21, 5-Butyramido-2-((5-nitrothiazol-2-yl)carbamoyl)phenyl acetate] | > 100 µM |  |
| O=C(Nc1ncc([N+](=O)[O-])s1)c1ccccc1NC1CC1 [B-71, 2-(cyclopropylamino)-N-(5-nitrothiazol-2-yl)benzamide] | 20 to 100 µM |  |
| Cc1nc(NC(=O)c2ccccc2NC(=O)CCCCCN)sc1[N+](=O)[O-] [BL-1, 2-(6-Aminohexanamido)-N-(4-methyl-5-nitrothiazol-2-yl)benzamide] |  | Kd [2]: < 20 µM |
| CC(=O)Nc1ccccc1C(=O)Nc1ccc(Br)cc1 [B-59, 2-Acetamido-N-(4-bromophenyl)benzamide] | 20 to 100 µM |  |
| CC(=O)Nc1ccccc1C(=O)Nc1ncc(C(C)C)s1 [B-43, 2-Acetamido-N-(5-isopropylthiazol-2-yl)benzamide] | 20 to 100 µM |  |

Continued, in another order:

| Kd [1] | Compound | other results |
| --- | --- | --- |
| > 100 µM | CC(=O)Nc1ccccc1C(=O)Nc1cccnc1 [B-122, 2-Acetamido-N-(pyridin-3-yl)benzamide] |  |
| > 100 µM | Cc1cc(NC(C)C)ccc1C(=O)Nc1ncc([N+](=O)[O-])s1 [B-161, 4-(Isopropylamino)-2-methyl-N-(5-nitrothiazol-2-yl)benzamide] |  |
| > 100 µM | Cc1cc(C#N)ccc1C(=O)Nc1ncc([N+](=O)[O-])s1 [B-151, 4-Cyano-2-methyl-N-(5-nitrothiazol-2-yl)benzamide] |  |
| < 20 µM | CC(=O)Nc1ccccc1C(=O)Nc1ccc([N+](=O)[O-])cc1 [B-125, 2-Acetamido-N-(4-nitrophenyl)benzamide] |  |
| > 100 µM | CCOc1cccc(C)c1C(=O)Nc1ncc([N+](=O)[O-])s1 [B-159, 2-Ethoxy-6-methyl-N-(5-nitrothiazol-2-yl)benzamide] |  |
| 20 to 100 µM | CC(=O)Nc1ccccc1C(=O)Nc1ccc(C(C)C)s1 [B-129, 2-Acetamido-N-(5-isopropylthiophen-2-yl)benzamide] |  |
| 20 to 100 µM | Cc1cc(Cl)ccc1C(=O)Nc1ncc([N+](=O)[O-])s1 [B-150, 4-chloro-2-methyl-N-(5-nitrothiazol-2-yl)benzamide] |  |
| 20 to 100 µM | CNC(=O)c1ccc(-c2cccc(O)c2)nc1NCC1CC1 [B-143, 2-((cyclopropylmethyl)amino)-6-(3-hydroxyphenyl)-N-methylnicotinamide] |  |
